Measured values as given in a melting point compilation (Tetko et al.; mined from patent text by program, amines drawn as free bases though some values may be those of a salt).

First: COC(=O)C=CCCC(C)C1CCC2C3CCC4CC(OC=O)CCC4(C)C3CC(OC=O)C12C (centres undefined)
Second: C[C@@H](O)[C@H]1CC[C@H]2[C@@H]3C=CC4=CC(=O)C=C[C@]4(C)[C@H]3CC[C@]12C
The melting point of the first is lower: 112 to 115 °C for the first, 162 to 164 °C for the second.

First: CCCCNC(=O)Nc1ccccc1C(=O)NCC1CCN(C(c2ccccc2)c2ccccc2)CC1
Second: C#CCCCNC(=O)C(c1ccccc1)c1ccccc1
The melting point of the first is higher: 197 to 198 °C for the first, 90 °C for the second.

Compared with O=C1CC(c2ccccc2)Cc2c1ccn2Cc1ccccc1 (centres undefined), Cc1ccccc1-c1nc(=S)n(Cc2ccccc2)[nH]1 is higher in melting point: 122 to 123 °C for the first, 150 to 153 °C for the second.

First: CC(Oc1ccc(Cl)cc1)c1ccnn2cnnc12 (centres undefined)
Second: O=C1CCc2cc(NCC(=O)N3CCC(Oc4ccc(Cl)cc4)CC3)ccc2N1
The melting point of the first is lower: 98 to 99 °C for the first, 248 to 251 °C for the second.

First: CC1=C(C(=O)OCCCO[N+](=O)[O-])C(c2cccc([N+](=O)[O-])c2)C(C(=O)OCCNC(=O)c2ccccn2)=C(C)N1 (centres undefined)
Second: COc1cc(OC)nc(Oc2cccc(Cl)c2C(=O)Oc2ccc([N+](=O)[O-])cc2)n1
The melting point of the first is higher: 146 to 148 °C for the first, 130 to 132 °C for the second.

Compared with CCSC[C@@H]1[C@@H](c2ccc(Cl)c(Cl)c2)C[C@@H]2CC[C@H]1N2C, CCCS(=O)c1nc(OS(C)(=O)=O)c(Cl)cc1Cl (centres undefined) is higher in melting point: 69 to 71 °C for the first, 92 to 94 °C for the second.

Compared with CCOP(=O)(OCC)SCc1ccc(-c2nc(SC)c3cc(Br)ccc3n2)cc1, CCOCc1nc2c(N)nc3ccccc3c2n1NCc1ccccc1 is higher in melting point: 126 to 127 °C for the first, 152 to 155 °C for the second.

First: CC(C(=O)O)c1ccc(-c2cn3cccnc3n2)cc1 (centres undefined)
Second: O=C(O)CCC(O)c1ccc(-c2ccccc2F)cc1 (centres undefined)
The melting point of the first is higher: 248 °C for the first, 174 to 175 °C for the second.

First: Cc1cc(C(=O)O)ccc1C1=CCCCC1C(C)(C)C (centres undefined)
Second: Cc1cc(CCCOc2c(C)cc(C(=O)O)cc2C)on1
The melting point of the first is lower: 152 °C for the first, 156 to 157 °C for the second.

First: Cc1c(Cc2cccc(C(F)(F)F)c2)oc2c(-c3cccc(C(=O)NCCS(C)(=O)=O)c3)cccc12
Second: Cc1ccc(C(=O)NC(Cc2ccc(C(F)(F)F)cc2)C(=O)c2ccc(F)cc2)c2ccccc12 (centres undefined)
The melting point of the first is higher: 162 to 163 °C for the first, 149 to 150 °C for the second.

Compared with CN(C)c1ccc(CNC(=O)[C@@H](Cc2ccccc2)NC(=O)CCC(=O)O)cc1, O=C(O)[C@H](Cc1ccccc1)C[C@@H](Cc1ccccc1)C(=O)O is lower in melting point: 194 to 196 °C for the first, 150 to 152 °C for the second.

First: Cc1nc(-c2ccc(C(F)(F)F)cc2)sc1CN(C)c1ccc(OCC(=O)O)c(I)c1
Second: CSCC(C)(C)NC(=O)c1c(I)cccc1C(=O)Nc1ccc(C(C)n2ccc(C(F)(F)F)n2)cc1C (centres undefined)
The melting point of the first is higher: 172 to 173 °C for the first, 79 to 86 °C for the second.

First: COC(=O)c1[nH]nc2c1CCc1cc(OC)c(Br)cc1-2
Second: O=C(Nc1ccc2c(c1)CCC2=O)c1cc(Cl)ccc1Cl
The melting point of the first is higher: 240 to 241 °C for the first, 218 to 221 °C for the second.

First: O=C1NCCN1C1CCC(NCC(O)COc2ccc(OCC3CC3)cc2)CC1 (centres undefined)
Second: O=C(C[C@H]1CCCO1)N[C@H]1CC[C@H](CCN2CCN(c3nccc4c3CCO4)CC2)CC1
The melting point of the first is lower: 163 to 165 °C for the first, 183 °C for the second.

Compared with C[Si](C)(O[C@@H]1c2cc(Br)ccc2-c2ccc(Br)cc2[C@H]1O[Si](C)(C)c1ccccc1)c1ccccc1 (relative stereo), CS(=O)(=O)Nc1ccc(C(=O)CN(Cc2ccccc2)Cc2ccccc2)cc1 is higher in melting point: 103 to 104 °C for the first, 131 to 134 °C for the second.

First: CC1c2cccc3c2N(CC3)c2ccccc2N1C(=O)CN(C)C (centres undefined)
Second: O=C(O)C1c2ccccc2COc2ccc(Br)cc21 (centres undefined)
The melting point of the first is lower: 104 to 108 °C for the first, 166 to 167 °C for the second.

First: CCOc1nn(C(=O)NS(=O)(=O)Cl)c(=O)n1C
Second: CC(C)(C)OC(=O)NS(N)(=O)=O
The melting point of the first is lower: 106 °C for the first, 130 to 131 °C for the second.

Compared with Cn1ccc2c1Cc1nncn1C=C2, Cc1noc(-c2nc(-c3c(F)cccc3F)nn2C)c1Cl is lower in melting point: 178 °C for the first, 94 to 97 °C for the second.

First: COc1ccc2nc3ccc(C(=O)OCOC(=O)C(C)(C)C)cn3c(=O)c2c1
Second: COC(=O)NC(=N)c1ccc(-n2nc(C)n(-c3ccc(CCC(=O)OCC(C)C)cc3)c2=O)cc1
The melting point of the first is lower: 129 to 131 °C for the first, 200 to 201 °C for the second.

First: CC(=O)c1ccc(NC(=O)Nc2cc(C(C)=O)cc(C(C)=O)c2)cc1
Second: O=C(C(=O)c1ccc(F)cc1Br)c1ccccc1
The melting point of the first is higher: 251 to 252 °C for the first, 62 to 66 °C for the second.

First: CC(C)Oc1ccc(OCc2ccccc2)cc1-c1nc2cc(C=O)cnc2[nH]1
Second: CC(C(=O)c1cccc(OCc2ccccc2)c1)N1CCC(n2c(=O)[nH]c3ccccc32)CC1 (centres undefined)
The melting point of the first is higher: 170 to 171 °C for the first, 138 to 140 °C for the second.

First: CCCC(C1CCCCC1)n1c(C(=O)OC)cnc1S (centres undefined)
Second: CCCOc1ccc(S(=O)(=O)NC[C@@H](C(=O)NO)N2CCCCC2)cc1
The melting point of the first is higher: 181 °C for the first, 147 °C for the second.

Compared with COc1c(O)cnc(CNc2nc(C)nc(C)c2Cl)c1C, COc1ccc(CC(=O)Nc2ccc3sc(C)nc3c2Cl)cc1 is lower in melting point: 220 to 224 °C for the first, 173 to 174 °C for the second.

Compared with Cc1c(N2C[C@@H](N)[C@@H](C(C)C)C2)c(F)cc2c(=O)c(C(=O)O)cn([C@@H]3C[C@@H]3F)c12, CC1CC2C3CCC4=CC(=O)C=CC4(C)C3=CCC2(C)C1(O)C(=O)CO (centres undefined) is higher in melting point: 124 to 127 °C for the first, 216 to 218 °C for the second.

First: Cc1cccc(NC(=O)Cn2c3c(c4cc(Cl)c(Cl)cc42)CCN(C(=O)OC(C)(C)C)CC3)c1C
Second: Cc1cc2c(-c3ccccc3Cl)c(C(=O)O)c(=O)n(C)c2cc1C
The melting point of the first is lower: 186 to 188 °C for the first, 251 to 252 °C for the second.

First: Cc1c(Cc2ccccc2)c2c(c(C)c1NC(=O)CC(C)(C)C)C(c1ccc(C(C)C)cc1)CO2 (centres undefined)
Second: CCNc1cc(OC)ccc1S(=O)(=O)N1C(=O)C(N)(c2ccccc2Cl)c2cc(Cl)ccc21 (centres undefined)
The melting point of the first is lower: 153 to 154 °C for the first, 192 to 196 °C for the second.

Compared with CC(C)N1CCN(C(=O)OC2CCN(c3ccc(C(N)=O)cn3)CC2)CC1, CC(C)CC(=O)Nc1c(C(N)=O)nnn1Cc1ccccc1 is lower in melting point: 200 to 204 °C for the first, 181 to 182 °C for the second.

Compared with C=CCN1C(=C)C(=O)N[C@@H](Cc2ccccc2)C1=O, Cc1[nH]c(Cc2ccccc2)nc1C=O is higher in melting point: 102 to 110 °C for the first, 171 to 173 °C for the second.

First: CC(C)COC(=O)CCC12CCC(=O)N1C(=O)CC2
Second: COC(=O)CSc1ccc(N2CC(CNC(C)=O)OC2=O)cc1F (centres undefined)
The melting point of the first is lower: 102 to 104 °C for the first, 119 to 120 °C for the second.

Compared with OCc1c(CO)c2sc3ccccc3n2c1-c1ccc(Cl)cc1, O=c1[nH]c2cc(Cl)ccc2c(O)c1-c1cccc(Oc2ccccc2)c1 is higher in melting point: 151 to 152 °C for the first, 303 to 306 °C for the second.

First: CC(=O)CC(=O)c1ccccn1
Second: O=C(NCC1CCCCCC1)c1cc(-c2cccnc2C(=O)O)ccc1Cl
The melting point of the first is lower: 46 to 49 °C for the first, 166 to 168 °C for the second.

First: COc1ccc2c(c1)C(CC#N)=CCC2
Second: COCCOc1ccc2c(Cl)c(C#N)cnc2c1
The melting point of the first is lower: 48 to 50 °C for the first, 143 to 145 °C for the second.

Compared with Oc1nc2ccc3c(Br)cccc3c2nc1O, CCCn1nc2c(N)nc3ccccc3c2c1CC(C)(C)NC(=O)c1cccnc1 is lower in melting point: greater than 300 °C for the first, 203 to 205 °C for the second.

First: Cc1cn(-c2cccc(C3=Nc4ccc(-c5ccc(F)cc5)cc4NC(=O)C3)c2)cn1
Second: CCn1nc(OCC(=O)c2cccs2)c(-c2ccc(F)cc2)c1-c1ccc(S(C)(=O)=O)cc1
The melting point of the first is higher: 215 °C for the first, 163 to 164 °C for the second.

First: CC(Oc1cc(Cl)ccc1Br)C(=O)N(C)C (centres undefined)
Second: CN(C)C=CC(=O)c1c(-c2ccccc2Cl)nc2occn12
The melting point of the first is lower: 76 to 77 °C for the first, 187 to 189 °C for the second.

Compared with Cc1ccccc1NC(=O)CN1CC2CCC(C1)N2S(=O)(=O)c1cccc2nonc12, CN1CC(=O)N2[C@H](c3ccc4c(c3)CCN4)c3[nH]c4ccccc4c3C[C@@H]2C1=O is higher in melting point: 167 to 168 °C for the first, 240 °C for the second.

First: N#CCCNC(=O)c1cccc(-c2ccc3c(c2)N(c2ccc(Cl)cc2Cl)CCO3)c1
Second: Cc1oc(-c2ccccc2)nc1COc1ccc(CCCC#N)cc1
The melting point of the first is higher: 147 to 148 °C for the first, 73 to 74 °C for the second.

Compared with COc1ccc(C(=C(C=O)c2nnnn2C)c2ccc(OC)cc2)cc1, COc1ccc(Oc2nc(Oc3ccc(OC)c(F)c3)nc(Oc3ccc(OC)c(F)c3)n2)cc1F is higher in melting point: 130 to 131 °C for the first, greater than 210 °C for the second.

First: CC(C)(F)c1nc[nH]c(=O)c1Cl
Second: C=CCONC(=O)c1nc(Cl)cc(N)c1Cl
The melting point of the first is higher: 168 to 171 °C for the first, 161 to 163 °C for the second.

First: COc1ccc(-c2cc(=Nc3c(C)cc(C)cc3C)n(C)c(=O)n2C)cc1N
Second: CCOC(=O)c1cc(=O)c(Oc2ccccc2OC)co1
The melting point of the first is higher: 176 to 178 °C for the first, 74 to 76 °C for the second.

First: Cc1cc(C)cc(OC(C)(C)C(=O)O[C@H]2C[C@H](O)C=C3C=C[C@H](C)[C@H](CC[C@@H]4C[C@@H](O)CC(=O)O4)[C@H]32)c1
Second: COc1cccc(OC)c1-c1cc(C(=O)NC2(C(=O)O)C3CC4CC(C3)CC2C4)nn1-c1ccc(C(=O)N(C)CCC(=O)O)cc1C(C)C (centres undefined)
The melting point of the first is lower: 129 to 131 °C for the first, 166 to 168 °C for the second.

First: COc1ccc(NS(=O)(=O)c2ccc(N3CCC(=O)CC3)cc2)cc1OC
Second: Nc1ccc(S(=O)(=O)Nc2ccc(S(N)(=O)=O)cc2)cc1Cl
The melting point of the first is lower: 50 to 56 °C for the first, 197 to 198 °C for the second.

First: O=C(/C=C/C1CCCCC1)N1CCN(C(=O)c2cc(C(F)(F)F)cc(C(F)(F)F)c2)[C@H](Cc2c[nH]c3ccccc23)C1
Second: O=C(Nc1ccc2c(c1)C(O)CC2)C(F)(F)F (centres undefined)
The melting point of the first is higher: 198 to 200 °C for the first, 123 to 124 °C for the second.

First: O=C1NCC(C(F)(F)C(F)(F)C(F)(F)F)C(=O)N1 (centres undefined)
Second: Cn1c(Br)c(C#N)c(C(F)(F)F)c1Br
The melting point of the first is higher: 223 °C for the first, 101 to 104 °C for the second.

First: CCCCC(=O)Nc1ccc([N+](=O)[O-])cc1Cl
Second: CN1CC(CCN2CCN(c3ccc([N+](=O)[O-])cc3)CC2)OC1=O (centres undefined)
The melting point of the first is lower: 80 to 95 °C for the first, 155 to 156 °C for the second.

First: CC1(C)Nc2ccccc2NC1=S
Second: NCCC1(O)c2ccccc2CCc2ccccc21
The melting point of the first is higher: 140 to 142 °C for the first, 113 to 114 °C for the second.

First: I/C(=C/C=C(/I)SCc1ccccc1)SCc1ccccc1
Second: CCCCNCCCCCCCCSc1nc(-c2ccccc2)c(-c2ccccc2)[nH]1
The melting point of the first is higher: 111 to 112 °C for the first, 75 to 78 °C for the second.

Compared with CC(C)=Cc1ccc(-c2c(C(C)C)ccc(CO)c2C(C)C)nc1, CCCCCc1c(C(C)(C)O)nc(C(C)C)c(CO)c1-c1ccc(F)cc1 is higher in melting point: 93 to 95 °C for the first, 180 to 182 °C for the second.

Compared with CCN(CC)c1ccc(C(O)C#Cc2ccc(C(=O)O)cc2)cc1C(C)C (centres undefined), NS(=O)(=O)CCCSc1ccc2ncnn2n1 is lower in melting point: 145 °C for the first, 130 to 131 °C for the second.

In the case of Oc1ccc2c(c1)CC(n1cc[nH]c1=S)CC2 (centres undefined), the melting point is reported as 248 to 250 °C.
